Test results as given in the CheMixHub viscosity set.

Assay: xn = mol fraction of the nth substance listed

CCN(CC)CC + CCCCCC
viscosity [mPa·s], 101.33 kPa
Details	x1 = 0.1076	x1 = 0.2064	x1 = 0.4089	x1 = 0.5106	x1 = 0.6081	x1 = 0.804	x1 = 0.9018
303.15 K	0.2744	0.276	0.2838	0.2911	0.3002	0.3248	0.3408
313.15 K	0.2432	0.2489	0.2626	0.271	0.2799	0.3004	0.3125

ClC(Cl)(Cl)Cl + CCCCCC
298.15 K, 101 kPa
Details	viscosity [mPa·s]
x1 = 0.1	0.3171
x1 = 0.1729	0.3422
x1 = 0.2	0.3432
x1 = 0.3	0.3743
x1 = 0.3869	0.4102
x1 = 0.4	0.4105
x1 = 0.5	0.4532
x1 = 0.5869	0.5067
x1 = 0.6	0.5052
x1 = 0.7	0.5705
x1 = 0.7906	0.6461
x1 = 0.8	0.6544
x1 = 0.9	0.7635

CCN(CC)CC + CCCCCCC
303.15 K, 101 kPa
Details	viscosity [mPa·s]
x1 = 0.00966	0.3735
x1 = 0.01875	0.3719
x1 = 0.02995	0.3707
x1 = 0.0422	0.3687
x1 = 0.04845	0.3675
x1 = 0.05931	0.3663
x1 = 0.07022	0.365
x1 = 0.07742	0.3639
x1 = 0.08877	0.363
x1 = 0.09882	0.3622

CCN(CC)CC + CCCCCCCC
viscosity [mPa·s], 101.33 kPa
Details	x1 = 0.1983	x1 = 0.4032	x1 = 0.5055	x1 = 0.6044	x1 = 0.7987	x1 = 0.9028
303.15 K	0.4507	0.4233	0.411	0.3999	0.3795	0.3694
313.15 K	0.3913	0.3701	0.3605	0.3523	0.3379	0.331

CCCOC(C)=O + CCCCCCCCCC
298.15 K, 101.33 kPa
Details	viscosity [mPa·s]
x2 = 0.0879	0.565
x2 = 0.1221	0.571
x2 = 0.1602	0.578
x2 = 0.2376	0.591
x2 = 0.3166	0.606
x2 = 0.3821	0.62
x2 = 0.4847	0.644
x2 = 0.6012	0.678
x2 = 0.715	0.718
x2 = 0.8476	0.776
x2 = 0.9258	0.817

ClC(Cl)(Cl)Cl + CCCCCCCCCCO
298.15 K, 101 kPa
Details	viscosity [mPa·s]
x2 = 0.05	1.031
x2 = 0.097	1.224
x2 = 0.15	1.441
x2 = 0.2	1.775
x2 = 0.39	3.091
x2 = 0.49	4.012
x2 = 0.59	5.08
x2 = 0.8	7.86

CCCC[N+](CCCC)(CCCC)CCCC.[I-] + CCCCCCCCCO
101.3 kPa, x1 = 0.0476
Details	viscosity [mPa·s]
293.15 K	16.29
298.15 K	13.16
303.15 K	10.92
308.15 K	9.085
313.15 K	7.675
318.15 K	6.439
323.15 K	5.529

CCCOC(C)=O + CCCCCCCCO
viscosity [mPa·s], 101 kPa
Details	x2 = 0.075	x2 = 0.1542	x2 = 0.2382	x2 = 0.3272	x2 = 0.4218	x2 = 0.5225	x2 = 0.6299	x2 = 0.7448	x2 = 0.8678
298.15 K	0.692	0.851	1.053	1.316	1.666	2.143	2.823	3.811	5.28
303.15 K	0.638	0.776	0.955	1.185	1.488	1.897	2.47	3.302	4.526
308.15 K	0.584	0.705	0.862	1.061	1.323	1.671	2.154	2.848	3.868
313.15 K	0.533	0.638	0.774	0.95	1.177	1.475	1.885	2.468	3.326

ClC(Cl)(Cl)Cl + CCCCCCCCO
viscosity [mPa·s], 101 kPa
Details	298.15 K	308.15 K	318.15 K
x2 = 0.023	0.92	0.796	0.696
x2 = 0.06	1	–	–
x2 = 0.1038	1.1	0.937	0.805
x2 = 0.12	1.139	–	–
x2 = 0.17	1.297	–	–
x2 = 0.2244	1.468	1.221	1.029
x2 = 0.23	1.47	–	–
x2 = 0.3266	1.867	1.527	1.255
x2 = 0.44	2.483	–	–
x2 = 0.54	3.124	–	–
x2 = 0.5645	3.223	2.495	1.946
x2 = 0.64	3.847	–	–
x2 = 0.7021	4.311	3.197	2.447
x2 = 0.83	5.58	–	–
x2 = 0.8568	5.746	4.172	3.118

ClC(Cl)(Cl)Cl + CCCCCCCO
viscosity [mPa·s], 101 kPa
Details	298.15 K	308.15 K	318.15 K
x2 = 0.0559	0.969	0.832	0.725
x2 = 0.07	0.982	–	–
x2 = 0.13	1.102	–	–
x2 = 0.147	1.151	1.004	0.867
x2 = 0.19	1.237	–	–
x2 = 0.25	1.402	–	–
x2 = 0.2529	1.453	1.227	1.052
x2 = 0.3189	–	1.321	1.096
x2 = 0.3828	1.836	1.489	1.231
x2 = 0.47	2.175	–	–
x2 = 0.57	2.716	–	–
x2 = 0.6371	3.08	2.329	1.851
x2 = 0.67	3.302	–	–
x2 = 0.7713	3.949	2.943	2.256
x2 = 0.816	4.238	3.167	2.422
x2 = 0.84	4.527	–	–

ClC(Cl)(Cl)Cl + CCCCCCO
viscosity [mPa·s], 101 kPa
Details	298.15 K	308.15 K	318.15 K
x2 = 0.0092	0.909	0.786	0.691
x2 = 0.0374	0.941	0.817	0.71
x2 = 0.07	0.961	–	–
x2 = 0.0912	1	0.865	0.745
x2 = 0.14	1.058	–	–
x2 = 0.1545	1.11	0.938	0.806
x2 = 0.2095	1.197	1.008	0.861
x2 = 0.21	1.167	–	–
x2 = 0.27	1.299	–	–
x2 = 0.293	1.368	1.127	0.942
x2 = 0.3554	1.533	1.255	1.046
x2 = 0.496	1.965	1.564	1.273
x2 = 0.5	1.931	–	–
x2 = 0.6	2.317	–	–
x2 = 0.6252	2.531	1.957	1.548
x2 = 0.69	2.737	–	–
x2 = 0.7459	3.091	2.344	1.814
x2 = 0.86	3.57	–	–
x2 = 0.8652	3.83	2.863	2.202
